Here are results for two compounds from patent publication US10849866B2, “Methods for inhibiting conversion of choline to trimethylamine (TMA)” (The Procter & Gamble Company, priority 2017, dated 2020).

Assay [1] concerns whole cell wild-type P. mirabilis. The assay can be described thus: Inhibition of conversion of choline to TMA by whole cell wild-type P. mirabilis (Example 5). Format: cell-based. The conditions noted are these: Proteus mirabilis. Here is the method: (§1) Briefly, efficacy was measured as IC50 (nM) by inhibition of conversion of choline to TMA metabolized by recombinant P. mirabilis Cut C/D lysate; recombinant D. alaskensis Cut C/D lysate, or whole cell wild-type P. mirabilis.

The target in assay [2] is T1, recombinant P. mirabilis Cut C/D lysate (Proteus mirabilis, UniProt B4EYG1).
T1 sequence (B4EYG1 1-1142): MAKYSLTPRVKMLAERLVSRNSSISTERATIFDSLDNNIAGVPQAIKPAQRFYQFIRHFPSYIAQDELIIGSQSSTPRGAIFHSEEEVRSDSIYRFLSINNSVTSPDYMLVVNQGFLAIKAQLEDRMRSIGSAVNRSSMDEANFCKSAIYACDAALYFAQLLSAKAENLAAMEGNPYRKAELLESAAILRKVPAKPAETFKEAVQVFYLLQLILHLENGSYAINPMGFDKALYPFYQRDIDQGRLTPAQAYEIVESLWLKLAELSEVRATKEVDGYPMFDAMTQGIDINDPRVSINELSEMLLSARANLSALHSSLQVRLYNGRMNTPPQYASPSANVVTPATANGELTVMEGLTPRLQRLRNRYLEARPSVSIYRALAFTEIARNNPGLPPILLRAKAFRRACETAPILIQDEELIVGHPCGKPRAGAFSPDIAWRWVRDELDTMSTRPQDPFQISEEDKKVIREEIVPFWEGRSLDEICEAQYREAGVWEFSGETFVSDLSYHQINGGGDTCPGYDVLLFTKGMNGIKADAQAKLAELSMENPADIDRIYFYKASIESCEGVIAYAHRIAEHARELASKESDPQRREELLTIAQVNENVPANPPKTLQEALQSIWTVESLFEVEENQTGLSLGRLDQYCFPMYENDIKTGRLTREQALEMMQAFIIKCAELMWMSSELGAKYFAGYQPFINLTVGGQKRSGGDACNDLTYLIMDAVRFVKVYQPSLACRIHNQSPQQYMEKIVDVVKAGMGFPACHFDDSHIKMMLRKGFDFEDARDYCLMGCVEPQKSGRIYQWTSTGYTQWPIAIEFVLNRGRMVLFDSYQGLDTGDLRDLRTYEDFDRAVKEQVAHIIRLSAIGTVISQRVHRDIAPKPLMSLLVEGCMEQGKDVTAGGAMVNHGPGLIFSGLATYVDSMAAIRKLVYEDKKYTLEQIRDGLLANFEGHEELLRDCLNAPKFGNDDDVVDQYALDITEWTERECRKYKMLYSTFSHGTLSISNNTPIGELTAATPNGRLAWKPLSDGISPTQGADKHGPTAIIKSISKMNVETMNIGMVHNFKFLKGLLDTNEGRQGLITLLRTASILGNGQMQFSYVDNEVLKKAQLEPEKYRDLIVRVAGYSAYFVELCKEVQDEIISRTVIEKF
T1 sequence (B4EYG0 1-316 partner): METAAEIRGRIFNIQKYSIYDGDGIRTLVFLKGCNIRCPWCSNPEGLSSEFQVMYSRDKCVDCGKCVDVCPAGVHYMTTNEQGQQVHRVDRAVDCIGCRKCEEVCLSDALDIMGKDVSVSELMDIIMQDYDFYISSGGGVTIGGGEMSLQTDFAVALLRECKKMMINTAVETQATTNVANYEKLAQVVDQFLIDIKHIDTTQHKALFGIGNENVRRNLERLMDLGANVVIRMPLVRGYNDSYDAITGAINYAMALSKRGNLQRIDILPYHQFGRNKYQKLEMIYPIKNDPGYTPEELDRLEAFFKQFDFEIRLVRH
The assay can be described thus: Inhibition of conversion of choline to TMA by recombinant P. mirabilis Cut C/D lysate (Example 5). It counts as biochemical. The protocol: as §1

Assay [3] concerns Proteus mirabilis 29906 (Pm) lysate. The assay can be described thus: Inhibition of formation of TMA from choline in Proteus mirabilis lysate (Example 2). Format: biochemical. The settings on record: Pm lysate 1.5 mg/mL protein, 50 μM d9-choline chloride, 37° C., two hours; read-out: TMA Inhibition (IC50, mol/L).
Procedure: Choline chloride (CC) (1M stock) was added to reach a final concentration of 2.5 mM choline chloride. The mixture was mixed using a vortex mixer for approximately 15 seconds and incubated at 37° C. for 22 hours. After incubation, 150 μL of CC-treated Pm lysate was dispensed into a deep-well plate (polypropylene, 2 mL volume, Corning Axygen catalogue # P-DW-20-C). […] The plates were agitated on a plate shaker for 1 minute. d9-choline chloride (1.5 μL of 5 mM) was added to all wells to reach a final d9-choline chloride concentration of 50 μM.
The plates were again agitated on a plate shaker for 1 minute and incubated at 37° C. for two hours. After incubation, 1.5 μL of formic acid was added to each well (final concentration=1% formic acid). The plates were agitated on a plate shaker for 1 minute and placed on ice. Cell lysate samples were spiked with stable isotope labeled internal standard (22.5 μL of 6 μg/mL of 13C3-trimethylamine (13C3-TMA) was added to each sample), then d9-trimethylamine (d9-TMA), trimethylamine (TMA) and 13C3-TMA were isolated from the lysate after protein precipitation as described below. […] The supernatant was removed and analyzed as described below. […] The concentrations of TMA and d9-TMA in the cell lysate were determined by interpolation from the quadratic (1/×2) regression curve.
Assay [4] concerns conversion of choline to TMA. The assay can be described thus: Rapid preclinical method: d9-choline challenge in mice (Example 6). The settings on record: oral gavage with 2 mg d9-Choline, plasma, Time 3 hr. It counts as in vivo, C57bl/6 female mice. The protocol:
Challenge: C57bl/6 female mice (8 wk of age ˜20 g BW) were maintained in accordance with the NIH guidelines in a 12:12 hr light:dark cycle on normal chow diet were placed in a clean cage without food ˜1 hr prior to gavage. […] Food was returned after a 2 hr fast (1 hr after gavage administration). Blood (30 μL) was collected into a heparinized capillary tube at 2, 3 and 4 hours after gavage. Blood was kept at 4° C., then spun using a centrifuge (5 min in centrifuge designed to capillary tubes) to separate plasma and hematocrit within 4 hours after collection. Plasma samples were stored at −80° C. Concentration of d9 Choline, d9TMA and d9TMAO was measured by LC-MS/MS.
Flora Normalization: Twenty four hours post-gavage mice were placed in a clean cage and fecal material from conventional mice was spread in all the cages.

Assay [5] has as its target T2, recombinant D. alaskensis Cut C/D lysate (Oleidesulfovibrio alaskensis, UniProt Q30W70).
T2 construct: made in house
T2 sequence (Q30W70 1-846): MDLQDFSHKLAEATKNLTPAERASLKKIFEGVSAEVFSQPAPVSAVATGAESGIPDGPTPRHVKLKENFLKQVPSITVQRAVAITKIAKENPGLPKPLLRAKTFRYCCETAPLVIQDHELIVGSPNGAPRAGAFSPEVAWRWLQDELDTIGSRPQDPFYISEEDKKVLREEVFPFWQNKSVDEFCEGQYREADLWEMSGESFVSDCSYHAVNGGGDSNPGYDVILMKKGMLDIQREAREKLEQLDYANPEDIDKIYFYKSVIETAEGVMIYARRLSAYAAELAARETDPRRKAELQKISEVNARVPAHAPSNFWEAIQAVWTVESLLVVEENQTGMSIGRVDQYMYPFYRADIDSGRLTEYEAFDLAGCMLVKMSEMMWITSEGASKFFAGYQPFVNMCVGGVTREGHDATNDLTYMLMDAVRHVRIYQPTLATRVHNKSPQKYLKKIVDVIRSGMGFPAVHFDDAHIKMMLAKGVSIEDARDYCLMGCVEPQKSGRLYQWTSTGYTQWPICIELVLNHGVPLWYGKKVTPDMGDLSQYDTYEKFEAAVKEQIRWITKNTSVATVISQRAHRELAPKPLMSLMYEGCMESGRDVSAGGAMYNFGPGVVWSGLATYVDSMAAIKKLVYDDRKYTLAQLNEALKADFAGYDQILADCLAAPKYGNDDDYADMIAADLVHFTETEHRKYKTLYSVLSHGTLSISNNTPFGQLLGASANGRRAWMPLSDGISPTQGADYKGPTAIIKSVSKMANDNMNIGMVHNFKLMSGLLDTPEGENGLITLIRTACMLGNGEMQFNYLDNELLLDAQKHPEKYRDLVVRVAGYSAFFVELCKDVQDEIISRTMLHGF
The assay can be described thus: Inhibition of conversion of choline to TMA by recombinant D. alaskensis Cut C/D lysate (Example 5). It counts as biochemical. Here is the method:
as §1

The term EC50 denotes the concentration at which the effect is half-maximal. A higher EC50 goes with lower potency in that assay. `C[N+](C)(CCl)CCF` [ID 1, N-(chloromethyl)-2-fluoro-N,N-dimethylethan-1-aminium chloride] displayed an EC50 in assay [1] of 8700 nM. Also, the values for the IC50 in assay [2], in assay [3] and in assay [5] were 690 nM, 270 nM and 760 nM, respectively. For the same compound, the “Calculated EC50 (mg/kg) compared to Vehicle Control” value in assay [4] is 3.10 mg/kg.

As to `C[N+](C)(CI)CCF` [ID 2, 2-fluoro-N-(iodomethyl)-N,N-dimethylethan-1-aminium chloride], the EC50 in assay [1] was 67000 nM. For the same compound, the IC50 in assay [2] is 240 nM; in assay [3] it was 179 nM; in assay [5], 150 nM. For the same compound, in assay [4], the “Calculated EC50 (mg/kg) compared to Vehicle Control” value is recorded as 15.40 mg/kg.
